Data taken from ChEMBL document CHEMBL3507680, “University of Dundee, Gates Library screen for HepG2 cell viability”.

Test: Human HepG2 cell viability assay in 384 well format
Assay type: toxicity, cell-based
Set-up: dose 125 nL, time 70.5 hour; cytotoxicity at 70.5 h: concentration not given beside the values
Conditions: HepG2 cells, read-out: Inhibition

SMILES	cytotoxicity at 70.5 h [%]
COc1ccc(Cl)cc1C(=O)NCc1cnn(C)c1C	-0.564
CC1CN(Cc2nc(Cc3ccccc3F)no2)CCN1C (stereo unspecified)	-2.74
C[C@@H]1CN(Cc2ccc(C(F)(F)F)cc2F)CC[C@]1(C)O	26.4
Cc1sc2nc(CCN)nc(N(C)CCCC3CCCO3)c2c1C (stereo unspecified)	16.5
CN(CC1(CO)CCC1)c1nc2c(c(=O)[nH]1)Cc1ccccc1OC2	-10.8
CC(C)N(C(=O)c1ccccc1-c1nc2c([nH]1)CCNC2)C(C)C	5.55
Cn1ncc(NC(=O)Cn2cc(-c3ccc(F)cn3)cn2)n1	-10.2
CNc1cc(C)nc(N2Cc3cnn(Cc4ccc(F)cc4)c3C2)n1	11.4
Cc1nnsc1CN(C)Cc1ccc(C(=O)Nc2sccc2C#N)cc1	-3.25
O=C(O)[C@]12CCCN(Cc3cccnc3)[C@@H]1CCN(c1cnccn1)C2	2.83
O=C1C[C@H]2CC[C@@H](CN1)N2C1CCSCC1	0.716
CSc1cccc(CC(=O)N[C@@H]2CCNC[C@H]2O)c1	10.3
COCc1nnc(C(=O)N2CCC(N3CCCCC3)CC2)o1	16.4
Cc1ccc(CN(CCN(C)C)C(=O)Nc2ccc(C)c(C#N)c2)s1	1.83
COc1cccnc1-c1ccc(F)c2c1OC(CN)C2 (stereo unspecified)	3.56
Cc1ccc(CN2C[C@H]3CC[C@@H]2CN(Cc2[nH]cnc2C)C3)o1	-0.228
Cc1ccc(-c2nnc(CN3CCOCC(CO)C3)o2)n1C (stereo unspecified)	-3.57
CN(CCO)C[C@@H]1CN(Cc2ccccc2-c2ccccc2)C[C@@H]1CO	-2.36
C1CCC(c2nc3c(c(N4CC(N5CCOCC5)C4)n2)CCNCC3)C1	-8.17
CCOCCN1CCC=C(C2c3nc[nH]c3CCN2C(C)=O)C1 (stereo unspecified)	0.27
Cc1ccc(C)c(OCCNC(=O)[C@@H]2CCCCN2)c1	-5.85
O=C(CCc1cc2n(n1)CCCNC2)NCCS(=O)(=O)N1CCCC1	21.6
Cc1cc2occ(CC(=O)N3CCC4(CCCN(C)C4=O)C3)c2cc1Cl (stereo unspecified)	-8.33

SMILES	cytotoxicity at 70.5 h [%]
CCC(=O)c1ccc(OCC(=O)NC(C)c2ncnn2CC)cc1 (stereo unspecified)	-17.2
NC(=O)c1noc(Cn2ccc3ccccc3c2=O)n1	-4.6
NC(=O)NCCC(=O)N1CCC(c2cc(-c3ccccc3Cl)n[nH]2)CC1	-1.52
CCSc1ncc(CN2C[C@H]3CC[C@@H]2CN(C2CCOCC2)C3)cn1	-7.51
Cc1cc(C(=O)N2CCn3nc(C(=O)NC4CC4)cc3C2)nc(C)n1	-2.56
O=C(CCC1CCN(C2CCSCC2)CC1)NCC1CCCO1 (stereo unspecified)	-12
O=C(O)CSc1nnc(-c2ccn[nH]2)n1-c1cccc(C(F)(F)F)c1	-4.2
CCNC(=O)[C@@H]1C[C@@H](N)CN1C(=O)CCc1ccc(C)c(C)c1	-10.5
Cc1ccc(-c2nc3c([nH]2)CCNC3C(=O)O)c2cccnc12 (stereo unspecified)	-6.16
COc1ccc(C(=O)N2CCC(Oc3ccccc3C)(C(=O)O)CC2)o1	-3.87
Cc1nc(CN(Cc2cccnc2)Cc2ccsc2)c[nH]1	0.327
CC(C)N1CC(C(=O)N2CCC(Oc3ccccc3Cl)CC2)CC1=O (stereo unspecified)	-0.961
CCCc1nc(N[C@H]2COC[C@@H]2N2CCCCC2)c2cnn(C)c2n1	-13.5
C1CC(CN2C[C@H]3CC[C@@H]2CN(Cc2noc(C4CCCC4)n2)C3)C1	22.2
CS(=O)(=O)N1CCC(c2nnc(CN3CCCC3)n2C2CC2)CC1	0.642
COc1cc(C)cc(C(C(=O)O)N(C)Cc2ccncc2C)c1OC (stereo unspecified)	4.18
Cc1ccc(-c2cc(C(=O)N(C)Cc3noc4c3CCCC4)[nH]n2)o1	43.8
N[C@@H]1c2ccccc2C2(CCN(C(=O)c3ccc(Cl)cn3)CC2)[C@H]1O	18.5
COCCN(Cc1nccs1)C(=O)c1c(C)cc(C)[nH]c1=O	12.2
Cc1nc(NCc2noc(C3CCCO3)n2)c2ccsc2n1 (stereo unspecified)	26.9
O=C1CNCC(C(=O)N2CC(Oc3ccccc3Cl)C2)N1 (stereo unspecified)	-7.25
Cc1n[nH]c(C)c1CCC(=O)N1CCc2c(nc[nH]c2=O)C1	-22.4
CN1CCC(C)(CN(C)Cc2ccc(CCC(C)(C)O)cc2)C1 (stereo unspecified)	-6.89

SMILES	cytotoxicity at 70.5 h [%]
COCCCN1CC2(CCCN(c3ncc(Cl)cc3F)C2)CCC1=O (stereo unspecified)	3.03
O=C(CCCN1CCOCC1)N1CCCC(CO)(CC2CC2)C1 (stereo unspecified)	-9.81
O=C(c1cc2ccccc2s1)N1CCC(C(=O)O)(n2cccn2)CC1	-4.38
CCOC(=O)C1(Cc2cccc(OC)c2)CCN(Cc2ncc[nH]2)CC1	-8.46
CCc1cc(NCCc2cnccn2)n2nc(C)c(C)c2n1	-5.77
Cc1nc(C)c(C(=O)N2CCc3[nH]nc(COc4ccccc4)c3C2)s1	-1.76
Cc1cc(CN2CCC(CNC(=O)c3cnc(C)nc3C)C2)[nH]n1 (stereo unspecified)	7.59
CC(=O)c1cc(C(=O)N2CC[C@@H]3CC[C@H](C2)N3C)c(=O)[nH]c1C	22.4
CN1CCCN(C(=O)c2csc3nc(-c4ccc(Cl)cc4)cn23)CC1	-23
CCCc1nc(CNC(=O)Cc2csc(C)n2)cs1	0.825
Cc1c(CN2CCC(C(=O)O)(n3ccnc3)CC2)oc2ccccc12	-7.33
CC(C)Oc1cccc(CN2CCC(C(C)N3CCOCC3)CC2)c1 (stereo unspecified)	-8.8
COc1ccc([C@@H]2CN(c3cnccn3)C[C@H]2N(C)C)cc1	22
CCCn1ncc(CN(Cc2ccsc2)Cc2ccco2)c1C	-6
CN(CCSc1ccccc1)C(=O)C(c1cccnc1)N1CCOCC1 (stereo unspecified)	33.5
CCNc1ncc(C(=O)N2CCC(c3ccccc3C(=O)O)C2)cn1 (stereo unspecified)	2.76
CCc1cn[nH]c1C1CCCN(C(=O)c2noc(C)c2COC)C1 (stereo unspecified)	-10.2
CN(C)C(=O)c1ccc(C2CCCN2C(=O)c2cccc3c2OCC3)s1 (stereo unspecified)	-6.24
Cc1ccc(CN2CCN(C(=O)c3ccccc3O)C(C)C2=O)cc1 (stereo unspecified)	-18.7
CCNC(=O)N1CCCC(C(=O)c2cccc(OC(C)C)c2)C1 (stereo unspecified)	-6.88
O=C1CCC2(CCNCC2)CN1Cc1nncn1CCc1ccccc1	-8.25
Cc1cnc(C)c(N2CCN(CCCc3ccncc3)CC2)n1	6.37
Cc1cc(C[C@@H]2COC[C@@H]2NC(=O)CN2CCOC2=O)on1	-7.96

SMILES	cytotoxicity at 70.5 h [%]
CCc1[nH]c2ccc(CNC(=O)Cc3c(C)nc(N)nc3C)cc2c1C	1.33
CN1CCC(Cc2noc(-c3cn(Cc4ccc(F)cc4)nn3)n2)CC1	-3.72
CCN1CC(C(=O)NCCn2cccc2)CCC1=O (stereo unspecified)	-7.13
Cc1ccc(CCNC(=O)CC2COCCN2S(=O)(=O)N(C)C)s1 (stereo unspecified)	-11
COc1cc(CN2CCCC2)ccc1Oc1ccc2c(c1)CC(CN)O2 (stereo unspecified)	1.9
Cc1cnn(CC(=O)N2CCC3(CCC(=O)N(CC(C)O)C3)CC2)c1 (stereo unspecified)	-5.26
O=C(CCc1nc(Cl)n[nH]1)N[C@H]1CC[C@H]1NC1Cc2ccccc2C1	-9.72
CN(C)C[C@@H]1CN(C2CCN(c3ccc(Cl)cc3)CC2)C[C@@H]1CO	-10.6
COc1nc2c(cc1C(=O)N1C[C@@H](N)C[C@H]1C(=O)NC(C)C)CCC2	-2.39
CN1CCCC2(CCN(C(=O)Cc3cc4c(cc3Cl)OCCO4)C2)C1=O (stereo unspecified)	-2.31
O=C(Cc1cnccn1)N1CCC(c2nccn2CC2CC2)CC1	31.6
CC(c1ccco1)N(C)Cc1cc2cc3c(cc2[nH]c1=O)OCO3 (stereo unspecified)	-8.06
O=C(Cc1cccc(O)c1)N1CCC2(CC1)c1ccccc1CC2O (stereo unspecified)	-11.7
CC(O)CN1CCc2onc(C(c3ccccc3)c3ccccc3)c2C1 (stereo unspecified)	-10
COCCS(=O)(=O)c1ncc(CN(C)CC(C)C)n1Cc1ccccc1	-1.85
O=C(Cn1c(=O)oc2ccccc21)N1Cc2cnn(CCO)c2C1	-2.5
Cc1oc(-c2cccc(F)c2)nc1CN1CCOCS1(=O)=O	-11.9
Cc1cc(C)c2nc(CN3CCC(CN)C3)cc(O)c2c1 (stereo unspecified)	6.13
COCCCC1CCCCN1Cc1cn2cc(C)ccc2n1 (stereo unspecified)	-25.8
Cc1ccccc1-n1cc(-c2ccnc(NC(CO)C(C)C)n2)cn1 (stereo unspecified)	-7.36
CN1CCCN(c2nccc(-c3cc(C(=O)O)ccn3)n2)CC1	24.6
Cc1cc(C)n(NC(=O)c2cccc3c2OCC3)c(=O)c1	-6.18
O=C(Nc1ccc(F)cc1)C1CNCCN1C(=O)CCO (stereo unspecified)	8.54

SMILES	cytotoxicity at 70.5 h [%]
C=C1C(C)(C)[C@H]2CC[C@]1(C(=O)N1CCC(n3cc(CO)nn3)CC1)C2	-7.81
CCN(Cc1cccc(C(=O)Nc2cn(C)nn2)c1)[C@H]1COC[C@@H]1O	-5.22
Cc1cc(C(F)(F)F)nc(CNC(=O)CCC2CCCCN2C)n1 (stereo unspecified)	0.421
CCCN(CC)c1cc(C2CCNCC2)nc(C)n1	26.5
COc1ccc(-c2nccn2CC(O)CN2CCCC2)c(F)c1 (stereo unspecified)	28.4
Cn1ccnc1C1c2nc[nH]c2CCN1Cc1cccnc1 (stereo unspecified)	-5.94
CCn1ccnc1CN(C)C(=O)Cn1ccc2ccccc2c1=O	-10.4
CN(Cc1n[nH]c2c1CCC2)C(=O)CCc1cc2n(n1)CCCNC2	-12.8
COc1ccc(C(O)CNC(=O)NCCc2csc(C)n2)cc1 (stereo unspecified)	-4.45
Cc1ccc(-c2cc(CNC(=O)N3CCSCC3)on2)cc1	-1.58
Cc1nc(CNC(=O)NCC(O)c2ccc(F)cc2)cs1 (stereo unspecified)	-3.15
Cc1csc(N2CCCN(C(=O)Cn3cncn3)CC2)n1	-2.46
Cc1csc(N2CCCN(C(=O)C(C)n3cncn3)CC2)n1 (stereo unspecified)	1.24
CCc1nc(C2CCCN(C(=O)c3ccccc3F)C2)no1 (stereo unspecified)	-2.67
COCCN1CCN(CCCS(=O)(=O)N(C)C)CC1C (stereo unspecified)	-2.19
CCS(=O)(=O)c1ccccc1N1CCC(N)CC1	-3.9
CC(=O)N1CCCN(C(=O)c2ccc(=O)n(C)c2)c2ccccc21	-2.79
O=C(c1nn(-c2ccccc2F)cc1O)N1CCCSCC1	2.69
Cn1cc(C(=O)N2CCSc3ccccc32)ccc1=O	3.72
